The record followed here is patent US8648071B2, “Hydrazonamide compounds that modulate Hsp90 activity” (Synta Pharmaceuticals Corp., priority 2008, dated 2014).

This assay relates to Her2. The experiment in a line: Degradation of Her2 in BT-474 cells, Western blot (Method 1). The class given is cell-based, human. The note with it: 0.5 μM, overnight. How it is done: Human high-Her2 breast carcinoma BT474 (HTB-20), SK-BR-3 (HTB-30) and MCF-7 breast carcinoma (HTB-22) from American Type Culture Collection, VA, USA were grown in Dulbecco's modified Eagle's medium with 4 mM L-glutamine and antibiotics (100 IU/ml penicillin and 100 μg/ml streptomycine; GibcoBRL). To obtain exponential cell growth, cells were trypsinized, counted and seeded at a cell density of 0.5×10^6 cells/ml regularly, every 3 days. All, experiments were performed on day 1 after cell passage.
BT-474 cells are treated with 0.5 μM, 2 μM, or 5 μM of 17AAG (a positive control) or 0.5 μM, 2 μM, or 5 μM of a compound of the invention overnight in DMEM medium. After treatment, each cytoplasmic sample is prepared from 1×10^6 cells by incubation of cell lysis buffer (#9803, Cell Signaling Technology) on ice for 10 minutes. The resulting supernatant used as the cytosol fractions is dissolved with sample buffer for SDS-PAGE and run on a SDS-PAGE gel, blotted onto a nitrocellulose membrane by using semi-dry transfer. Non-specific binding to nitrocellulose is blocked with 5% skim milk in TBS with 0.5% Tween at room temperature for 1 hour, then probed with anti-Her2/ErB2 mAb (rabbit IgG, #2242, Cell Signaling) and anti-Tubulin (T9026, Sigma) as housekeeping control protein. […]
For orientation: A western blot detects proteins with antibodies after separation by electrophoresis.

As for `C=CCNC1=C2C[C@@H](C)C[C@H](OC)[C@H](O)[C@@H](C)/C=C(\C)[C@H](OC(N)=O)[C@@H](OC)/C=C\C=C(/C)C(=O)NC(=CC1=O)C2=O` [Compound 17AAG, 17-allylamino-17-demethoxygeldanamycin], the “degradation of Her2” value is “partial degradation of Her2”.
